How the values were obtained:
[1] = system: Tetranychus urticae (two-spotted spider mite); experiment: whole plant or invertebrate; type: in vivo; details: foliar, 192 h
Experimental: Example B8: Activity Against Tetranychus urticae (Two-Spotted Spider Mite)
Bean leaf discs on agar in 24-well microtiter plates were sprayed with aqueous test solutions prepared from 10′000 ppm DMSO stock solutions. After drying the leaf discs were infested with a mite population of mixed ages. The samples were assessed for mortality on mixed population (mobile stages) 8 days after infestation.

[2] = system: Diabrotica balteata (corn root worm); experiment: Activity against Diabrotica balteata, maize sprouts (Example B3); type: in vivo; details: 96 h, L2 larvae on maize sprouts, 4 days after infestation, read-out: effect in at least one of the two categories (mortality or growth inhibition)
Experimental: Example B3: Activity Against Diabrotica balteata (Corn Root Worm)
Maize sprouts, placed on an agar layer in 24-well microtiter plates were treated with aqueous test solutions prepared from 10′000 ppm DMSO stock solutions by spraying. After drying, the plates were infested with L2 larvae (6 to 10 per well). The samples were assessed for mortality and growth inhibition in comparison to untreated samples 4 days after infestation. The following compounds gave an effect of at least 80% in at least one of the two categories (mortality or growth inhibition) at an application rate of 200 ppm: P1.1, P1.2, P1.6, P1.7, P1.8, P1.9, P1.10, P1.13, P1.14, P1.15, P1.16, P1.17 and P1.18.

[3] = system: Spodoptera littoralis (Egyptian cotton leaf worm); experiment: Activity against Spodoptera littoralis, cotton leaf disc spray (Example B1); type: in vivo; details: foliar, 72 h, L1 larvae on cotton leaf discs, 3 days after infestation, read-out: control in at least one of the three categories (mortality, anti-feedancy or growth inhibition)
Experimental: Example B1: Activity Against Spodoptera littoralis (Egyptian Cotton Leaf Worm)
Cotton leaf discs were placed on agar in 24-well microtiter plates and sprayed with aqueous test solutions prepared from 10′000 ppm DMSO stock solutions. After drying the leaf discs were infested with five L1 larvae. The samples were assessed for mortality, anti-feedant effect, and growth inhibition in comparison to untreated samples 3 days after infestation. Control of Spodoptera littoralis by a test sample is when at least one of mortality, anti-feedant effect, and growth inhibition is higher than the untreated sample. The following compounds gave an effect of at least 80% control in at least one of the three categories (mortality, anti-feedancy or growth inhibition) at an application rate of 200 ppm: P1.2, P1.3, P1.6, P1.7, P1.8, P1.9, P1.10, P1.12, P1.13, P1.14, P1.15, P1.16, P1.17 and P1.18.

[4] = system: Plutella xylostella (diamond back moth); experiment: Activity against Plutella xylostella, artificial diet (Example B2); type: in vivo; details: 120 h, L2 larvae on artificial diet, 5 days after infestation, read-out: effect in at least one of the two categories (mortality or growth inhibition)
Experimental: Example B2: Activity Against Plutella xylostella (Diamond Back Moth)
24-well microtiter plates with artificial diet were treated with aqueous test solutions prepared from 10′000 ppm DMSO stock solutions by pipetting. After drying, the plates were infested with L2 larvae (10 to 15 per well). The samples were assessed for mortality and growth inhibition in comparison to untreated samples 5 days after infestation. The following compounds gave an effect of at least 80% in at least one of the two categories (mortality or growth inhibition) at an application rate of 200 ppm: P1.3, P1.6, P1.7, P1.8, P1.9, P1.13, P1.14, P1.15, P1.16, P1.17 and P1.18.

[5] = system: Myzus persicae (green peach aphid); experiment: Activity against Myzus persicae, sunflower leaf disc spray (Example B5); type: in vivo; details: foliar, 144 h, mixed-age aphid population on sunflower leaf discs, 6 days after infestation
Experimental: Example B5: Activity Against Myzus persicae (Green Peach Aphid)
(§1) Sunflower leaf discs were placed on agar in a 24-well microtiter plate and sprayed with aqueous test solutions prepared from 10′000 ppm DMSO stock solutions. After drying, the leaf discs were infested with an aphid population of mixed ages. The samples were assessed for mortality 6 days after infestation.

[6] = system: Euschistus heros (neotropical brown stink bug); experiment: Activity against Euschistus heros, soybean leaf spray (Example B7); type: in vivo; details: 120 h, N-2 nymphs on soybean leaf, 5 days after infestation
Experimental: Example B7: Activity Against Euschistus heros (Neotropical Brown Stink Bug)
Soybean leaf on agar in 24-well microtiter plates were sprayed with aqueous test solutions prepared from 10′000 ppm DMSO stock solutions. After drying the leaf were infested with N-2 nymphs. The samples were assessed for mortality 5 days after infestation.

[7] = system: Bemisia tabaci (cotton white fly); experiment: Activity against Bemisia tabaci, cotton leaf disc spray (Example B6); type: in vivo; details: foliar, 144 h, adult white flies on cotton leaf discs, 6 days after incubation
Experimental: Example B6: Activity Against Bemisia tabaci (Cotton White Fly)
Cotton leaf discs were placed on agar in 24-well microtiter plates and sprayed with aqueous test solutions prepared from 10′000 ppm DMSO stock solutions. After drying the leaf discs were infested with adult white flies. The samples were checked for mortality 6 days after incubation.

[8] = system: Thrips tabaci (onion thrips); experiment: Activity against Thrips tabaci, sunflower leaf disc spray (Example B9); type: in vivo; details: foliar, 144 h, mixed-age thrips population on sunflower leaf discs, 6 days after infestation
Experimental: Example B9: Activity Against Thrips tabaci (Onion Thrips)
as §1, with “in” for “in a”, “plates” for “plate”, “drying” for “drying,”, “a thrips” for “an aphid”

[9] = system: Spodoptera littoralis (Egyptian cotton leaf worm); experiment: Activity against Spodoptera littoralis, systemic via lettuce roots in agar (Example B4); type: in vivo; details: 144 h, 12.5 ppm in agar, uptake by lettuce roots, eggs, 6 days after infestation, read-out: control in at least one of the three categories (mortality, anti-feedancy or growth inhibition)
Description: Example B4: Activity Against Spodoptera littoralis (Egyptian Cotton Leaf Worm)
Test compounds were applied by pipette from 10′000 ppm DMSO stock solutions into 24-well plates and mixed with agar. Lettuce seeds were placed on the agar and the multi well plate was closed by another plate which contains also agar. After 7 days the roots have absorbed the compound and the lettuce has grown into the lid plate. The lettuce leafs were now cut off into the lid plate. Spodoptera eggs were pipetted through a plastic stencil on a humid gel blotting paper and the plate closed with it. The samples were assessed for mortality, anti-feedant effect and growth inhibition in comparison to untreated samples 6 days after infestation. The following compound gave an effect of at least 80% control in at least one of the three categories (mortality, anti-feedancy or growth inhibition) at an application rate of 12.5 ppm: P1.17 and P1.18.

Compound	percent effect (mortality or growth inhibition) at 200 ppm [2]	percent control (mortality, anti-feedant effect or growth inhibition) at 200 ppm [3]	percent effect (mortality or growth inhibition) at 200 ppm [4]	other results
CCSc1cc(C(F)(F)F)cnc1-n1ncc(-c2cccc(C(F)(F)F)c2)c1C [Compound P1.1, 3-ethylsulfanyl-2-[5-methyl-4-[3-(trifluoromethyl)phenyl]pyrazol-1-yl]-5-(trifluoromethyl)pyridine]	≥ 80%			mortality at 200 ppm [1]: ≥ 80%
CCS(=O)(=O)c1cc(C(F)(F)F)cnc1-n1ncc(-c2cccc(C(F)(F)F)c2)c1C [Compound P1.2, 3-ethylsulfonyl-2-[5-methyl-4-[3-(trifluoromethyl)phenyl]pyrazol-1-yl]-5-(trifluoromethyl)pyridine]	≥ 80%	≥ 80%		
CCS(=O)(=O)c1cc(C(F)(F)F)cnc1-n1cc(-c2ccc(C(F)(F)F)cc2)cn1 [Compound P1.3, 3-ethylsulfonyl-5-(trifluoromethyl)-2-[4-[4-(trifluoromethyl)phenyl]pyrazol-1-yl]pyridine]		≥ 80%	≥ 80%	
CCSc1cc(C(F)(F)F)cnc1-n1ncc(-c2ccc(C(F)(F)F)cc2)c1C [Compound P1.4]				melting point: 113 to 114 °C
CCS(=O)(=O)c1cc(C(F)(F)F)cnc1-n1ncc(-c2ccc(C(F)(F)F)cc2)c1C [Compound P1.5]				melting point: 152 to 154 °C
CCS(=O)(=O)c1cc(C(F)(F)F)cnc1-n1cc(-c2cccc(C(F)(F)F)c2)cn1 [Compound P1.6]	≥ 80%	≥ 80%	≥ 80%	
CCS(=O)(=O)c1cc(C(F)(F)F)cnc1-n1cc(-c2ccc(C(F)(F)F)nc2)cn1 [Compound P1.7]	≥ 80%	≥ 80%	≥ 80%	
CCS(=O)(=O)c1cc(C(F)(F)F)cnc1-n1cc(-c2cc(C(F)(F)F)ccn2)cn1 [Compound P1.8]	≥ 80%	≥ 80%	≥ 80%	
CCS(=O)(=O)c1cc(C(F)(F)F)ccc1-n1cc(-c2cccc(C(F)(F)F)c2)cn1 [Compound P1.9]	≥ 80%	≥ 80%	≥ 80%	
CCS(=O)(=O)c1cc(C(F)(F)F)ccc1-n1cc(-c2cc(C(F)(F)F)ccn2)cn1 [Compound P1.10, 2-[1-[2-ethylsulfonyl-4-(trifluoromethyl)phenyl]pyrazol-4-yl]-4-(trifluoromethyl)pyridine]	≥ 80%	≥ 80%		mortality at 200 ppm [5]: ≥ 80%
CCS(=O)(=O)c1cc(C(F)(F)F)cnc1-n1cc(-c2ccc(SC(F)(F)F)cc2)cn1 [Compound P1.11]				melting point: 181 to 182 °C
CCS(=O)(=O)c1cc(C(F)(F)F)cnc1-n1cc(-c2cccc(SC(F)(F)F)c2)cn1 [Compound P1.12]		≥ 80%		
CCS(=O)(=O)c1cc(C(F)(F)F)ccc1-n1cc(-c2ccc(C(F)(F)F)cc2)cn1 [Compound P1.13]	≥ 80%	≥ 80%	≥ 80%	mortality at 200 ppm [6]: ≥ 80%
CCS(=O)(=O)c1cc(C(F)(F)F)ccc1-n1ncc(-c2ccc(C(F)(F)F)cc2)c1C [Compound P1.15, 1-[2-ethylsulfonyl-4-(trifluoromethyl)phenyl]-5-methyl-4-[4-(trifluoromethyl)phenyl]pyrazole]	≥ 80%	≥ 80%	≥ 80%	mortality at 200 ppm [7]: ≥ 80%; mortality at 200 ppm [8]: ≥ 80%; mortality at 200 ppm [5]: ≥ 80%
CCS(=O)(=O)c1cc(C(F)(F)F)ccc1-n1ncc(-c2cccc(C(F)(F)F)c2)c1C [Compound P1.16]	≥ 80%	≥ 80%	≥ 80%	mortality at 200 ppm [7]: ≥ 80%; mortality at 200 ppm [6]: ≥ 80%; mortality at 200 ppm [5]: ≥ 80%
CCS(=O)(=O)c1cc(C(F)(F)F)ccc1-n1cc(-c2cncc(C(F)(F)F)c2)cn1 [Compound P1.17]	≥ 80%	≥ 80%	≥ 80%	mortality at 200 ppm [7]: ≥ 80%; mortality at 200 ppm [6]: ≥ 80%; percent control (mortality, anti-feedant effect or growth inhibition) at 12.5 ppm [9]: ≥ 80%; mortality at 200 ppm [5]: ≥ 80%
CCS(=O)(=O)c1cc(C(F)(F)F)cnc1-n1cc(-c2cncc(C(F)(F)F)c2)cn1 [Compound P1.18]	≥ 80%	≥ 80%	≥ 80%	percent control (mortality, anti-feedant effect or growth inhibition) at 12.5 ppm [9]: ≥ 80%; mortality at 200 ppm [5]: ≥ 80%
CCSc1cccnc1-n1cc(-c2ccc(C(F)(F)F)nc2)cn1 [Compound P1.19, 3-ethylsulfanyl-2-[4-[6-(trifluoromethyl)-3-pyridyl]pyrazol-1-yl]pyridine]				melting point: 121 to 123 °C
